From patent US6358736B1, “Method for increasing the antigen presenting ability of leukemia cells” (The United States of America as represented by the …, priority 1995, dated 2002)

How the values were obtained:
Format in all cases: cell-based, human
[1] = tested on: HUVEC; assay: FACS analysis of umbilical vein endothelial cells
Description: Endothelial cells were previously isolated from human umbilical vein (HUVEC), then cultured in IMEM with 20% fetal calf serum and rhEGF ([…]). The cells in this experiment had undergone four previous passages to confluence and were trypsinized and reseeded in T25 flasks. After four days culture to reachieve confluence individual flasks were treated with several concentrations of calcium ionophore (180, 375 and 750 ng/ml). Two days later, cells were harvested by trypsinization and analyzed.

[2] = tested on: T lymphocyte subpopulation within the PBMC; assay: FACS analysis of T lymphocyte subpopulation in unfractionated PBMC; details: A23187 750 mg/ml, 40 hours
Description: PBMC were prepared by leukapheresis and Ficoll-Hypaque and placed in culture. Since the cells were never elutriated and no adherence step was performed, these cultures included large numbers of T, B, and NK lymphocytes as well as monocytes. The medium was our standard RPMI 10% human AB serum with antibiotics including amphotericin B. Cells were either untreated or treated for 40 hours with calcium ionophore A23187 […]. Cells were then harvested and analyzed by FACS. Cells were stained with FITC conjugated anti-CD3, anti-CD40, anti-CD57, anti-CD14, or the combination; in addition cells were stained with PE conjugated control antibodies, anti-B7.1, anti-B7.2, etc. In this way the effect of calcium ionophore treatment on each parameter could be clearly delineated.

[3] = tested on: monocytes cocultured with autologous CD8+ T cells; assay: Autologous CD8+ T cell sensitization to peptide-pulsed monocytes (interferon gamma secretion)
Description: Monocyte-rich elutriation fractions from healthy HLA-A2.1 donors were either untreated or treated with ionophore A23187 750 ng/ml for 40 hours, then pulsed with either the M1 influenza-derived peptide or the MART1 melanoma-derived peptide (the M1 peptide is a “recall antigen” for all HLA-A2.1^pos individuals, whereas the MART1 peptide is usually a “recall antigen” only for HLA-A2.^pos patients with melanoma). Antigen-pulsed monocytes were cocultured with freshly prepared autologous CD8^+ T cells for 8-10 days; the T cells were then harvested and cocultured with peptide-pulsed HLA-A2.1 positive T2 stimulator cells which had been pulsed 2 hours with 1 μg/ml of either the MART1 peptide, the influenza M1 derived peptide, or an irrelevant HIV peptide to assess whether specific sensitization to FLU or MART1 peptides was attained.
After 40 hours, the cells were pulsed with a tumor derived HER2neu (369-377) peptide for two hours, harvested, then FACS analyzed or cocultured for 8-10 days with naive autologous CD8^+ T cells to determine whether rapid sensitization to the HER2neu peptide could be achieved.

[4] = tested on: monocytes; assay: Calcium-chelation luminescence spectrophotometry of intracellular calcium flux; details: indol-loaded monocytes; calcium ionophore 180-750 ng/ml
Description: Calcium-chelation luminescence spectrophotometry was utilized to measure intracellular calcium fluxes in monocytes. Monoytes were incubated with 5 uM/ml indol, a calcium chelating agent which emits fluorescence at different wavelengths (405 or 480 nm) depending on whether or not it is bound to cycloplasmic calcium. Increased calcium mobilization causes relative shifts in emission from one wavelength to the other. After 30 minute incubation with indol, monocytes were washed, pulsed with a variety of agents such as calcium ionophore, virus, f-MET-LEU-PHE, or LPS. To measure calcium fluxes at subsequent time intervals, cells were stimulated with a 355 nm wavelength beam, and fluorescence emission measured at 405 and 480 nm.

[5] = tested on: HL-60 cells; assay: FACS analysis of cell surface markers on HL-60 cells; details: optimal doses, within 20 hours
[6] = tested on: HL-60 cells; assay: as above
Description: Calcium was removed from cultured cells by two methods.
The second method involved washing the cells extensively in calcium-free RPMI medium, and culturing them in the same calcium-free medium supplemented with serum that had been dialyzed against calcium-free phosphate-buffered saline.
The calmodulin kinase inhibitors KN-62 (20 uM) or KT-5926 (1 uM) was added to HL-60 cells in the presence of 188 ng/ml A23187. Twenty four hours later the level of CD80 was analyzed.
Thapsigargin was added to cultured human peripheral blood monocytes and HL-60 cells in concentrations ranging from 0 to 1000 nM. Cells were harvested 24 hours later and evaluated for the acquisition of ADC immunophenotypic characteristics by FACS analysis.
Cells were harvested after three days, irradiated (3000R), then FACS analyzed or cocultured in graded numbers with freshly prepared naive (CD45RO negative) T lymphocytes. Allosensitization was assessed by pulsing at day 4 with ^3H-TdR and harvesting 18 hours later.

[7] = tested on: adherence-enriched monocytes; assay: FACS analysis of monocytes enriched by Ficoll separation and adherence; details: A23187 750 ng/ml, 20 hours
Description: Blood was drawn in heparinized syringes (approximately 80 cc), diluted 1:1 with normal saline, layered on Ficoll-Hypaque, and centrifuged for 20 minutes to remove neutrophils and red blood cells. The peripheral blood mononuclear cell (PBMC) containing interface were washed, counted, and added to 24 well plates, 2 cc culture medium per well, 2×10^7 cells per well.
After 60 minutes the non adherent cells were removed, leaving a half confluent surface of adherent cells in each well (i.e., monocyte enrichment by adherence) Wells were either untreated or treated with calcium ionophore A23 187 750 ng/ml, and harvested 20 hours later.

CNc1ccc2oc(C[C@H]3O[C@@]4(CC[C@H]3C)O[C@H]([C@H](C)C(=O)c3ccc[nH]3)[C@H](C)C[C@H]4C)nc2c1C(=O)O [A23187] was tested, and the “ICAM-1 and CD40 expression” value ([1]; 375 and 750 ng/ml, two days) was “upregulated ICAM-1 and CD40 expression”, the HLA-ABC expression ([1]; two days) was “unchanged” and the “B7.1, B7.2, HLA-DR and CD83 expression” value ([1]; with or without ionophore treatment) was “failed to express detectable B7.1, B7.2, HLA-DR or CD83”. For the same compound, the “B7.2 upregulation over culture without ionophore” value [2] was 10 fold, the CD40 upregulation [2] was 4 fold and the HLA-DR upregulation [2] was 6 fold. For the same compound, the ICAM-1 upregulation [2] was 3.3 fold, the “stimulation of autologous T cell response to recall antigen M1 influenza peptide, vs untreated monocytes” value ([3]; A23187 750 ng/ml, 40 hours, HLA-A2.1 donors) was “equally able” and the “sensitization of autologous T cells to MART1 peptide” value ([3]; A23187 750 ng/ml, 40 hours, eight normal donors) was “in every instance”. The “T cell sensitization to HER2neu (369-377) peptide” value ([3]; monocytes treated 40 hours, majority of patients) was “could not be achieved”, the “intracellular calcium flux / mobilization” value [4] was “marked sustained monocyte mobilization” and the “expression of CD83, ICAM-1, B7.1 and B7.2” value [5] was “uniform de novo expression of CD83, ICAM-1, B7.1, and B7.2”. For the same compound, the costimulatory molecule expression ([6]; A23187 180 ng/ml, three days) was “marked upregulation of costimulatory molecules B7.1, B7.2, and ICAM-1”, the HLA-DR expression ([6]; agent alone) was “not induced” and the “ablation of ionophore-induced upregulation of CD80 and CD86” value ([6]; calcium-free RPMI and dialyzed serum) was about 100%. For the same compound, the “B7.1 and CD83 expression” value [7] was “de novo B7.1 and CD83 expression”, the “B7.2, HLA-DR and CD40 expression” value [7] was “upregulated B72, HLA-DR, and CD40 expression” and the CD14 expression [7] was “uniform CD14 downregulation”.
